One experiment concerns the target T1, FECH (Homo sapiens, UniProt P22830).
T1 sequence (P22830 1-423): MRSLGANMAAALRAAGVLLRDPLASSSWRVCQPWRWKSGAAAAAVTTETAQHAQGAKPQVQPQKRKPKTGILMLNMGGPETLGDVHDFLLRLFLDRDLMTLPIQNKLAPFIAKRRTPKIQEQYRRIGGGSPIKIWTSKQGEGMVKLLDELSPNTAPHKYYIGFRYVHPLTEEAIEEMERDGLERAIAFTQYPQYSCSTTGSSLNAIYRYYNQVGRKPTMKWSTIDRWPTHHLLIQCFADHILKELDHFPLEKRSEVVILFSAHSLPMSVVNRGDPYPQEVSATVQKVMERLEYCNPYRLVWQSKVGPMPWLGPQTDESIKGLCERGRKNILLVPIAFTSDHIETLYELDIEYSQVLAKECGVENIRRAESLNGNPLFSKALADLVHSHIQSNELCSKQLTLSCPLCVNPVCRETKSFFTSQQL
The following applies: binder.

Another experiment addresses T2, MAP3K5 (Homo sapiens, UniProt Q99683).
T2 sequence (Q99683 1-1374): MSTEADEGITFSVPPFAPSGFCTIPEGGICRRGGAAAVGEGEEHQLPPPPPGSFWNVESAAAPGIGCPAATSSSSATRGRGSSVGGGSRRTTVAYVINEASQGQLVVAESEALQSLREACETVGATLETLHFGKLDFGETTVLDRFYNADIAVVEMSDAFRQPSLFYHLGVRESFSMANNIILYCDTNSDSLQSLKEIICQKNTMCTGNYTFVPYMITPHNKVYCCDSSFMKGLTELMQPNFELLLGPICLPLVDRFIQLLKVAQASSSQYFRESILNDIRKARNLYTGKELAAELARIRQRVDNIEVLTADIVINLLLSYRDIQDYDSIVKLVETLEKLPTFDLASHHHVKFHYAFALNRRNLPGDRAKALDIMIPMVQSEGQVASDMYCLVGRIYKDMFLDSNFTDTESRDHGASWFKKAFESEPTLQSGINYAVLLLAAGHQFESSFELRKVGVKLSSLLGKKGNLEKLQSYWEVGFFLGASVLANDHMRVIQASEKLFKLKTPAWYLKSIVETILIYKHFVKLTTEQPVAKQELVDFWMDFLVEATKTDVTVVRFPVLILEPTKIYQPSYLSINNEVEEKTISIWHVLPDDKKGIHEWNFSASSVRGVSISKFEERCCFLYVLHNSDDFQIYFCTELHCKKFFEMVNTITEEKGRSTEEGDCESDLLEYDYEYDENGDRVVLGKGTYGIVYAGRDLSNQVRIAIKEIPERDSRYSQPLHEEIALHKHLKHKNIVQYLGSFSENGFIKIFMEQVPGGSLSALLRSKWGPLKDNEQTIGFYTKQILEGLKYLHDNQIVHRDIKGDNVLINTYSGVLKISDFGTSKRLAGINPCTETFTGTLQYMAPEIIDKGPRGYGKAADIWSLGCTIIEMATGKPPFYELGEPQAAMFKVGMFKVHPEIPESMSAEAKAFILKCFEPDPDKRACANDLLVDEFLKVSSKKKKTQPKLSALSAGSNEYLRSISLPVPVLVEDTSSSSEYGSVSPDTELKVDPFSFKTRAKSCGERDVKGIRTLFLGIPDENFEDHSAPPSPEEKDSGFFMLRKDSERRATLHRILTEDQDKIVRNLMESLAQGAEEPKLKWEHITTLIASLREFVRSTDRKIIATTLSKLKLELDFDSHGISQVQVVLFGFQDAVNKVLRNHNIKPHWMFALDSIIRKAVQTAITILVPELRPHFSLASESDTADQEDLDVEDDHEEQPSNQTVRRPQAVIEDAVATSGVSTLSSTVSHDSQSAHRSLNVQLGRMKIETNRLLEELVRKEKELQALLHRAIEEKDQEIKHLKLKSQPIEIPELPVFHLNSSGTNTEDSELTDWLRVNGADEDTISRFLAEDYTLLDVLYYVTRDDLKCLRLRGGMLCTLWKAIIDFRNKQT
The following applies: binder.

Molecules are shown by their SMILES.

As to `COc1ccc(O)c(Nc2ncc3cc(-c4ccc(-c5cccc(C)n5)cc4Cl)c(=O)n(CCCCN)c3n2)c1` [compound 34, 8-(4-Aminobutyl)-6-(2-chloro-4-(6-methylpyridin-2-yl)phenyl)-2-((2-hydroxy-5-methoxy-phenyl)amino)pyrido[2,3-d]pyrimidin-7(8H)-one], the “dTm 34” value on FECH is 3.2 °C; on MAP3K5, 10.3 °C.
With `Cc1cccc(-c2ccc(-c3cc4cnc(Nc5ccc(F)c(CO)c5)nc4n(CCCCN)c3=O)c(Cl)c2)n1` [compound 33, 8-(4-Aminobutyl)-6-(2-chloro-4-(6-methylpyridin-2-yl)phenyl)-2-((4-fluoro-3-(hydroxymethyl)phenyl)amino)pyrido[2,3-d]pyrimidin-7(8H)-one], the “dTm 33” value at FECH was -2.9 °C; at MAP3K5, 14.1 °C.
For the compound `COc1cc(N2CCOCC2)ccc1Nc1ncc2cc(-c3ccc(-c4cccc(C)n4)cc3Cl)c(=O)n(CCCCN)c2n1` [compound 35, 8-(4-Aminobutyl)-6-(2-chloro-4-(6-methylpyridin-2-yl)phenyl)-2-((2-methoxy-4-morpholino-phenyl)amino)pyrido[2,3-d]pyrimidin-7(8H)-one], the entries for the “dTm 35” value at FECH and at MAP3K5 were 7.0 °C and 12.2 °C, respectively.
For the compound `COc1cc(N2CCN(C)CC2)ccc1Nc1ncc2cc(-c3ccc(-c4cccc(C)n4)cc3Cl)c(=O)n(CCCCN)c2n1` [compound 36, 8-(4-Aminobutyl)-6-(2-chloro-4-(6-methylpyridin-2-yl)phenyl)-2-((2-methoxy-4-(4-methylpiperazin-1-yl)phenyl)amino)pyrido[2,3-d]pyrimidin-7(8H)-one], the “dTm 36” value at FECH amounted to 3.0 °C; at MAP3K5, 10.1 °C.

For the origin of these results see article doi:10.1101/2023.11.24.568596v1 (biorxiv, 2023).
